PubChem BioAssay AID256 (DTP/NCI, 2004)
Several values for one entry are separate records, joined by “and”; a condition that tells them apart may be missing. Equal values may be shown once. Toxic doses and inconclusive results are not listed. The calls were made as follows: active = survival T/C of 150% or more; inactive = T/C below 125% in these data.

Test system: CD2F1 mice, L1210 leukemia ip, survival T/C
Experiment: NCI In Vivo Anticancer Drug Screen. Data for tumor model L1210 Leukemia (intraperitoneal) in CD2F1 (CDF1) mice
Conditions: endpoint: mean survival time, higher = longer survival
Outline: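 Each value reflects a quotient of treated over vehicle control outcomes in mice with a transplanted tumor.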

[1] = dose: 100.0 mg/kg/injection, schedule: Q04DX002 (ip), vehicle: saline with Tween-80
[2] = dose: 200.0 mg/kg/injection, schedule: Q04DX002 (ip), vehicle: saline with Tween-80
[3] = dose: 100.0 mg/kg/injection, schedule: Q04DX003 (ip), vehicle: saline with Tween-80
[4] = dose: 200.0 mg/kg/injection, schedule: Q04DX003 (ip), vehicle: saline with Tween-80
[5] = dose: 400.0 mg/kg/injection, schedule: Q04DX003 (ip), vehicle: saline with Tween-80
[6] = dose: 50.0 mg/kg/injection, schedule: Q01DX009 (ip), vehicle: saline
[7] = dose: 100.0 mg/kg/injection, schedule: Q01DX009 (ip), vehicle: saline
[8] = dose: 200.0 mg/kg/injection, schedule: Q01DX009 (ip), vehicle: saline
[9] = dose: 50.0 mg/kg/injection, schedule: Q01DX009 (ip), vehicle: saline with Tween-80
[10] = dose: 100.0 mg/kg/injection, schedule: Q01DX009 (ip), vehicle: saline with Tween-80
[11] = dose: 200.0 mg/kg/injection, schedule: Q01DX009 (ip), vehicle: saline with Tween-80
[12] = dose: 6.25 mg/kg/injection, schedule: Q01DX009 (ip), vehicle: saline with Tween-80
[13] = dose: 25.0 mg/kg/injection, schedule: Q01DX009 (ip), vehicle: saline with Tween-80
[14] = dose: 100.0 mg/kg/injection, schedule: Q01DX001 (ip), vehicle: saline with Tween-80
[15] = dose: 200.0 mg/kg/injection, schedule: Q01DX001 (ip), vehicle: saline with Tween-80
[16] = dose: 400.0 mg/kg/injection, schedule: Q01DX001 (ip), vehicle: saline with Tween-80

Measured: T/C

C1CSCCSCCCSCCSC1
inactive: dose: 50.0 mg/kg/injection, schedule: Q04DX002 (ip), vehicle: saline with Tween-80 96 % of control | [1] 108 % of control | [2] 101 % of control

CCCCCOc1ccc(Cl)cc1Cl
inactive: [1] 86 % of control | [2] 101 % of control | dose: 400.0 mg/kg/injection, schedule: Q04DX002 (ip), vehicle: saline with Tween-80 109 % of control

CN(C)Cc1cc(C(C)(C)C)cc(C2CCCCC2)c1O
inactive: [3] 100 % of control | [4] 100 % of control | [5] 103 % of control

CN(C)CCNC1=C(Cl)C(=O)c2ccccc2C1=O
inactive: dose: 6.25 mg/kg/injection, schedule: Q04DX003 (ip), vehicle: saline with Tween-80 97 % of control | dose: 12.5 mg/kg/injection, schedule: Q04DX003 (ip), vehicle: saline with Tween-80 101 % of control | dose: 25.0 mg/kg/injection, schedule: Q04DX003 (ip), vehicle: saline with Tween-80 91 % of control and 102 % of control

CC(C)c1ccc(C(O)C2CC2)cc1 (configuration not stated)
inactive: [6] 100 % of control | [7] 100 % of control | [8] 96 % of control

Nc1nc(N)nc(Nc2ccc(Sc3ccc(Nc4nc(N)nc(N)n4)cc3)cc2)n1
inactive: dose: 180.0 mg/kg/injection, schedule: Q01DX Z (ip), vehicle: saline 103 % of control

CC(C)(CCC(=O)c1ccccc1)C(=O)O
inactive: [3] 90 % of control | [4] 94 % of control | [5] 87 % of control

CCN(CC)CCSC(=O)C(O)(c1ccccc1)c1cccc(C)c1 (configuration not stated)
inactive: dose: 75.0 mg/kg/injection, schedule: Q01DX001 (ip), vehicle: saline 105 % of control

C1CSC(=[N+]2CC[N+](=C3SCCS3)CC2)S1
inactive: dose: 12.5 mg/kg/injection, schedule: Q01DX009 (ip), vehicle: saline 101 % of control | dose: 25.0 mg/kg/injection, schedule: Q01DX009 (ip), vehicle: saline 104 % of control | dose: 25.0 mg/kg/injection, schedule: Q04DX002 (ip), vehicle: saline 100 % of control | dose: 50.0 mg/kg/injection, schedule: Q04DX002 (ip), vehicle: saline 88 % of control

Cc1ccc(NC(=O)Oc2cc(C)c(Cl)c(C)c2Cl)c(C)c1
inactive: [9] 89 % of control | [10] 101 % of control | [11] 104 % of control

CN/N=C1\CCC2C3CCc4cc(O)ccc4C3CCC12C (configuration not stated)
inactive: dose: 25.0 mg/kg/injection, schedule: Q01DX009 (ip), vehicle: Klucel (hydroxypropylcellulose) (HPC) 102 % of control | dose: 50.0 mg/kg/injection, schedule: Q01DX009 (ip), vehicle: Klucel (hydroxypropylcellulose) (HPC) 103 % of control

C=C1C(=O)OC2CCCC/C=C\C12 (configuration not stated)
inactive: [6] 100 % of control | [7] 102 % of control | [8] 97 % of control

CC(C)N1C(=O)C=C(c2ccc([N+](=O)[O-])cc2)C1=O
inactive: [12] 93 % of control | dose: 12.5 mg/kg/injection, schedule: Q01DX009 (ip), vehicle: saline with Tween-80 95 % of control | [13] 95 % of control | [9] 95 % of control

CCC[CH2][Sn]1([CH2]CCC)[O]C2C(CO)OC(n3ccc4c(N)ncnc43)C2[O]1 (configuration not stated)
inactive: dose: 0.39 mg/kg/injection, schedule: Q01DX005 (ip), vehicle: water 97 % of control | dose: 0.78 mg/kg/injection, schedule: Q01DX005 (ip), vehicle: water 103 % of control | dose: 1.56 mg/kg/injection, schedule: Q01DX005 (ip), vehicle: other 111 % of control | dose: 1.56 mg/kg/injection, schedule: Q01DX005 (ip), vehicle: water 90 % of control | dose: 3.13 mg/kg/injection, schedule: Q01DX005 (ip), vehicle: other 95 % of control | dose: 3.13 mg/kg/injection, schedule: Q01DX005 (ip), vehicle: water 106 % of control

N#CC1(Cc2ccc(OCc3ccccc3)c(OCc3ccccc3)c2)c2ccccc2C=CN1C(=O)c1ccccc1 (configuration not stated)
inactive: [13] 103 % of control | [9] 100 % of control | [10] 91 % of control

CC(SC(=S)N(C)C)C(=O)O (configuration not stated)
inactive: [3] 96 % of control | [4] 101 % of control | [5] 101 % of control

O=C1CCCCCN1C(=O)c1ccccc1
inactive: dose: 50.0 mg/kg/injection, schedule: Q01DX009 (ip), vehicle: other 105 % of control | dose: 100.0 mg/kg/injection, schedule: Q01DX009 (ip), vehicle: other 97 % of control | dose: 200.0 mg/kg/injection, schedule: Q01DX009 (ip), vehicle: other 105 % of control

COc1cc(OC)c(/C=C/c2cc3ccccc3c[n+]2C)c(OC)c1
inactive: dose: 3.13 mg/kg/injection, schedule: Q01DX009 (ip), vehicle: saline with Tween-80 117 % of control | [12] 117 % of control

Clc1nc2ccccc2[nH]1
inactive: dose: 100.0 mg/kg/injection, schedule: Q04DX003 (ip), vehicle: saline 98 % of control | dose: 200.0 mg/kg/injection, schedule: Q04DX003 (ip), vehicle: saline 100 % of control | dose: 400.0 mg/kg/injection, schedule: Q04DX003 (ip), vehicle: saline 90 % of control

CC(=O)Nc1ccc2c(c1)CCC2=O
inactive: [14] 91 % of control | [15] 95 % of control | [16] 98 % of control

O=P(O)(O)OP(=O)(O)OCC1OC(n2cnc3c(=S)nc[nH]c32)C(O)C1O (configuration not stated)
inactive: dose: 200.0 mg/kg/injection, schedule: Q01DX009 (ip), vehicle: saline sonified 123 % of control | dose: 400.0 mg/kg/injection, schedule: Q01DX009 (ip), vehicle: saline sonified 112 % of control

CCN(CC)Cc1cc(Nc2ncnc3oc(C)c(C)c23)ccc1O
inactive: [14] 100 % of control | [10] 102 % of control | [15] 95 % of control | [11] 96 % of control | [16] 95 % of control | dose: 400.0 mg/kg/injection, schedule: Q01DX009 (ip), vehicle: saline with Tween-80 100 % of control
